From patent US20090011937A1, “Use of Fungicides for Increasing the Quality and Optionally the Quantity of Oil-Plant Products” (priority 2006, published 2009)

How the values were obtained:
Type in all cases: in vivo
[1] = test system: Oilseed rape cv. "Lioness"; test: Sulfur content of oil from treated oilseed rape (EN ISO 20884); conditions: oil of rapeseed cv. Lioness, Britain 2005/2006; spray during anthesis; normal pressure; untreated 4
Description: Oilseed rape cv. “Lioness” was grown in 2005/2006 in Britain under the normal conditions. During anthesis (growth stage BBCH 61-65), the rapeseed plants were treated by spraying either with boscalid (employed in the form of the commercially available product Cantus®; application rate: 250 g active substance per ha), with boscalid in combination with dimoxystrobin (employed in the form of the commercially available product Pictor®; application rate: in each case 100 g active substance per ha), with prothioconazole (employed in the form of the commercially available product Proline®; application rate: 175 g active substance per ha) or with azoxystrobin (employed in the form of the commercially available product Amistar®; application rate: 200 g active substance per ha). For comparison reasons, some of the rapeseed plants remained untreated. The plants were harvested in summer 2006 (BBCH 92). The rapeseed was pressed with a press from Ökotec under normal pressure (nozzle 8, 40 rpm, temperature at the pressing head 60° C.), and the sulfur content of the oil obtained was determined as specified in EN ISO 20884.

[2] = test system: Oilseed rape cv. "Lioness"; test: Overall contamination of oil from treated oilseed rape (DIN EN 12662); conditions: oil of rapeseed cv. Lioness, Britain 2005/2006; spray during anthesis (BBCH 61-65); normal pressure; untreated 33
Description: Oilseed rape cv. “Lioness” was grown in 2005/2006 in Britain under the normal conditions. During anthesis (growth stage BBCH 61-65), the rapeseed plants were treated by spraying either with boscalid (employed in the form of the commercially available product Cantus®; application rate: 250 g active substance per ha), with boscalid in combination with dimoxystrobin (employed in the form of the commercially available product Pictor®; application rate: in each case 100 g active substance per ha), with prothioconazole (employed in the form of the commercially available product Proline®; application rate: 175 g active substance per ha) or with azoxystrobin (employed in the form of the commercially available product Amistar®; application rate: 200 g active substance per ha). For comparison reasons, some of the rapeseed plants remained untreated. The plants were harvested in summer 2006 (BBCH 92). The rapeseed was pressed with a press from Ökotec under normal pressure (nozzle 8, 40 rpm, temperature at the pressing head 60° C.), and the overall contamination of the oil obtained was determined as specified in DIN EN 12662.

Oilseed rape [3] = test: Alkaline-earth metal content (Ca, Mg) of oil, oilseed rape treated with metconazole, pressing with normal pressure (DIN EN 14538); conditions: oil of rapeseed, Germany 2004/2005; spray autumn and spring, in each case 60 g active ingredient per ha; pressed under normal pressure; untreated 5.7
Description: (§1) Oilseed rape was grown in 2004/2005 in Germany under the usual conditions. In autumn 2004 (growth stage BBCH 14-16) and in spring 2005 (growth stage BBCH 31-51), some of the oilseed rape was treated by spraying with metconazole (employed in the form of the commercially available product Caramba®; application rate: in each case 60 g active ingredient per ha). For comparison purposes, the remainder of the oilseed rape remained untreated. The plants were harvested in summer 2005 (growth stage BBCH 92). The rapeseed was pressed with a press from Ökotec under normal pressure (nozzle 8, 40 rpm, temperature at the pressing head 60° C.), and the phosphorus content and the alkaline-earth metal content (Ca, Mg) of the resulting oil were determined in accordance with DIN EN 14107 and DIN EN 14538, respectively.

[4] = test system: Oilseed rape cv. "Trabant"; test: Phosphorus content of oil, oilseed rape treated with metconazole or metconazole in combination with boscalid, pressing at high pressure (DIN EN 14107); conditions: oil of rapeseed cv. Trabant, Bothkamp 2005/2006; metconazole 60 g/ha autumn and spring, boscalid 250 g/ha at anthesis; pressed under high pressure; untreated 5.0
Description: Oilseed rape cv. “Trabant” was grown under the usual conditions in 2005/2006 in Germany at the Bothkamp site. In autumn 2005 (growth stage BBCH 16-18) and in spring 2006 (BBCH 31-51), some of the oilseed rape plants were treated by spraying with metconazole (employed in the form of the commercially available product Caramba®; application rate: in each case 60 g active ingredient per ha). Some other oilseed rape plants were furthermore additionally treated during anthesis (BBCH 65) by spraying with boscalid (employed in the form of the commercially available product Cantus®; application rate: 250 g active substance per ha). For comparison reasons, some of the rapeseed plants remained untreated. The plants were harvested in summer 2006 (growth stage BBCH 92). The rapeseed was pressed with a press from Ökotec under high pressure (nozzle 6, 70 rpm, temperature at the pressing head >70° C.), and the phosphorus content of the resulting oil was determined in accordance with DIN EN 14107.

Oilseed rape [5] = test: Phosphorus content of oil, oilseed rape treated with metconazole, pressing with normal pressure (DIN EN 14107); conditions: oil of rapeseed, Germany 2004/2005; spray autumn and spring, in each case 60 g active ingredient per ha; pressed under normal pressure; untreated 1.9
Description: as §1

[6] = test system: Oilseed rape cv. "Trabant"; test: Alkaline-earth metal content of oil, oilseed rape treated with metconazole, pressing with normal pressure and high pressure (DIN EN 14538)
Description: Oilseed rape cv. “Trabant” was grown under the usual conditions in 2005/2006 in Germany at the Bothkamp site. In autumn 2005 (growth stage BBCH 16-18) and in spring 2006 (BBCH 31-51), some of the oilseed rape plants were treated by spraying with metconazole (employed in the form of the commercially available product Caramba®; application rate: in each case 60 g active ingredient per ha). For comparison reasons, the remainder of the rapeseed plants remained untreated. The plants were harvested in summer 2006 (growth stage BBCH 92). The rapeseed was pressed with a press from Ökotec and the alkaline-earth metal content (Ca, Mg) of the resulting oil was determined as specified in DIN EN 14538. Here, part of the rapeseed was pressed under normal pressure (nozzle 8, 40 rpm, temperature at the pressing head 60° C.) and another portion under high pressure (nozzle 6, 70 rpm, temperature at the pressing head >70° C.).

[7] = test system: Oilseed rape cv. "Lioness"; test: Acid content of oil, oilseed rape treated with boscalid or boscalid in combination with dimoxystrobin (DIN EN 14104); conditions: oil of rapeseed cv. Lioness, Britain 2005/2006; spray during anthesis; normal pressure; untreated 0.41
Description: Oilseed rape cv. “Lioness” was grown in 2005/2006 in Britain under the normal conditions. During anthesis (growth stage BBCH 61-65), the rapeseed plants were treated by spraying either with boscalid (employed in the form of the commercially available product Cantus®; application rate: 250 g active substance per ha) or with boscalid in combination with dimoxystrobin (employed in the form of the commercially available product Pictor®; application rate: in each case 100 g active substance per ha). For comparison reasons, some of the rapeseed plants remained untreated. The plants were harvested in summer 2006 (BBCH 92). The rapeseed was pressed with a press from Ökotec under normal pressure (nozzle 8, 40 rpm, temperature at the pressing head 60° C.), and the acid content of the oil obtained was determined as specified in DIN EN 14104.

[8] = test system: Oilseed rape cv. "Talent"; test: Iodine number of oil, oilseed rape treated with boscalid (EN 14111); conditions: oil of rapeseed cv. Talent, Tachenhausen 2005/2006; boscalid 250 g/ha during anthesis; normal pressure; untreated 108
Description: Oilseed rape cv. “Talent” was grown in 2005/2006 under the usual conditions at the Tachenhausen site in Germany. During anthesis (growth stage BBCH 61-65), the oilseed rape plants were treated by spraying with boscalid (employed in the form of the commercially available product Cantus®; application rate: 250 g active substance per ha). For comparison reasons, some of the oilseed rape plants remained untreated. The plants were harvested in summer 2006 (BBCH 92). The rapeseed was pressed with a press from Ökotec under normal pressure (nozzle 8, 40 rpm, temperature at the pressing head 60° C.), and the iodine number of the oil obtained was determined as specified in EN 14111.

[9] = test system: Oilseed rape cv. "Talent"; test: Resistance to oxidation of oil, oilseed rape treated with boscalid or boscalid in combination with dimoxystrobin (DIN EN 14112); conditions: oil of rapeseed cv. Talent, Tachenhausen 2005/2006; spray during anthesis; normal pressure; untreated 9.5
Description: Oilseed rape cv. “Talent” was grown in 2005/2006 under the usual conditions at the Tachenhausen site in Germany. During anthesis (growth stage BBCH 61-65), the oilseed rape plants were treated by spraying either with boscalid (employed in the form of the commercially available product Cantus®; application rate: 250 g active substance per ha) or with boscalid in combination with dimoxystrobin (employed in the form of the commercially available product Pictor®; application rate: in each case 100 g active ingredient per ha). For comparison reasons, some of the oilseed rape plants remained untreated. The plants were harvested in summer 2006 (BBCH 92). The rapeseed was pressed with a press from Ökotec under normal pressure (nozzle 8, 40 rpm, temperature at the pressing head 60° C.), and the resistance to oxidation of the oil obtained was determined as specified in DIN EN 14112.

OC(Cc1ccccc1Cl)(Cn1nc[nH]c1=S)C1(Cl)CC1 (stereo not drawn) [Prothioconazole, prothioconazole]
Sulfur content [1]: 2 mg/kg
Overall contamination [2]: 22 mg/kg

CC1(C)CCC(Cc2ccc(Cl)cc2)C1(O)Cn1cncn1 (stereo not drawn) [2 × metconazole, metconazole]
Alkaline-earth metal content (Ca + Mg) (Oilseed rape [3]): 3.9 mg/kg
Phosphorus content [4]: 4.0 mg/kg
Phosphorus content (Oilseed rape [5]): <1 mg/kg
Brittleness of the seed coat ([6]; inferred from the more pronounced reduction of alkaline-earth metal content in high-pressure oil versus normal-pressure oil): appears to reduce the brittleness of the seed coat
Alkaline-earth metal content (Ca + Mg) - high pressure ([6]; oil of rapeseed cv. Trabant, Bothkamp 2005/2006, metconazole 60 g/ha autumn and spring, high pressure (nozzle 6, 70 rpm, >70° C.), untreated 9): 5 mg/kg
Alkaline-earth metal content (Ca + Mg) - normal pressure ([6]; oil of rapeseed cv. Trabant, Bothkamp 2005/2006, metconazole 60 g/ha autumn and spring, normal pressure (nozzle 8, 40 rpm, 60° C.), untreated 6): 4 mg/kg

O=C(Nc1ccccc1-c1ccc(Cl)cc1)c1cccnc1Cl [Boscalid, boscalid]
Sulfur content [1]: 2 mg/kg
Acid number [7]: 0.32 mg KOH/g
Iodine number [8]: 105 g iodine per 100 g
Resistance to oxidation at 110° C. [9]: 9.7 h
Overall contamination [2]: 20 mg/kg

CO/C=C(/C(=O)OC)c1ccccc1Oc1cc(Oc2ccccc2C#N)ncn1 [Azoxystrobin, azoxystrobin]
Sulfur content [1]: 2 mg/kg
Overall contamination [2]: 24 mg/kg
